Measurements: US6683055B1, “Low molecular weight inhibitors of complement proteases” (BASF Aktiengesellschaft, priority 1999, dated 2004)
Where a name gives a salt, the structure may show the parent alone.

Assays:
[1] = biological target: T1, C1r from human plasma, activated, two-chain form (Homo sapiens, UniProt P00736); assay: Color substrate test for C1r inhibition (Example A); type: biochemical; details: amidolytic C1r activity, substrate Cbz-Gly-Arg-S-Bzl; read-out: C1R IC50 according to Example A
T1 construct: from tissue; host or cells: human plasma
T1 sequence (P00736 18-463 partner limits assumed): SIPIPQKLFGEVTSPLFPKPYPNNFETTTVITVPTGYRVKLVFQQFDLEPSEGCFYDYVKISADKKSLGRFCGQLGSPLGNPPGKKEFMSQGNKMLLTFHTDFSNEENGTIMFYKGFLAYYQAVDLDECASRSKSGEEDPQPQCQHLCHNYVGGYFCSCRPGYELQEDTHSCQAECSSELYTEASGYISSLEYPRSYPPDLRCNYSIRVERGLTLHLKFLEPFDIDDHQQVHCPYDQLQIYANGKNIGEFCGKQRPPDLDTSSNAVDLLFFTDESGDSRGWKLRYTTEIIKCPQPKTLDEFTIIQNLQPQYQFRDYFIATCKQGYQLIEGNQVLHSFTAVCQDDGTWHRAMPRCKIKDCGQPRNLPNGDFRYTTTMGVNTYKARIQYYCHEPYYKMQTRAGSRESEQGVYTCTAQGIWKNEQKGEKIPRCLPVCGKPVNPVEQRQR
T1 sequence (P00736 464-705 limits assumed): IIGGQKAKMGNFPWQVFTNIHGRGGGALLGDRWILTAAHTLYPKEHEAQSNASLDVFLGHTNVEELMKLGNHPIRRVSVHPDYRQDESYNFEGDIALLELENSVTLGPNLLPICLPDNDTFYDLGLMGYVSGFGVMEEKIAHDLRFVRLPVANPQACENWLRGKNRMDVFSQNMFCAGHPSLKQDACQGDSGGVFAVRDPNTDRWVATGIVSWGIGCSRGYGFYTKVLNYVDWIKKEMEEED
Source text: Color Substrate Test for C1r Inhibition

[2] = biological target: T2, C1s from human plasma, activated, two-chain form (Homo sapiens, UniProt P09871); assay: Color substrate test for C1s inhibition (Example B); type: biochemical; details: amidolytic C1s activity, substrate Cbz-Gly-Arg-S-Bzl; read-out: C1S IC50 according to Example B
T2 construct: from tissue; host or cells: human plasma
T2 sequence (P09871 16-437 partner limits assumed): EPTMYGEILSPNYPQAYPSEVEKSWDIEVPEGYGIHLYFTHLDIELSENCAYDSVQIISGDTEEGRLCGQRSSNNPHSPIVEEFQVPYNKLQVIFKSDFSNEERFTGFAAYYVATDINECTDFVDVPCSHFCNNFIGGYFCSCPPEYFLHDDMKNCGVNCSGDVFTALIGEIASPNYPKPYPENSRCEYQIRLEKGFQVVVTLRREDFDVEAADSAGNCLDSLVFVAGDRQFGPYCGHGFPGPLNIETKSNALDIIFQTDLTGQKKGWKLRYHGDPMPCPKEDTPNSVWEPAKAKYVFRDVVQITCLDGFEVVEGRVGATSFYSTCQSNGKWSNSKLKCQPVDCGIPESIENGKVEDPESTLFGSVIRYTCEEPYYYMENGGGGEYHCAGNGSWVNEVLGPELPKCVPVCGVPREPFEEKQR
T2 sequence (P09871 438-688 limits assumed): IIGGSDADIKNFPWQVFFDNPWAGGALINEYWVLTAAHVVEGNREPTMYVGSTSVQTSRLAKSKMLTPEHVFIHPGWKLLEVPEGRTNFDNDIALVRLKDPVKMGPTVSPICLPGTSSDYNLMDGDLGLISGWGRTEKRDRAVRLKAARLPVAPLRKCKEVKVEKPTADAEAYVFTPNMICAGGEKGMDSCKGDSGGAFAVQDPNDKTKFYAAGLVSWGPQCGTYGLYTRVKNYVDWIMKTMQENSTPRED
Source text: Material and Methods: Color Subrate Test for C1s Inhibition

IC50 [1] [µM]	IC50 [2] [µM]	Compound
> 100	30	N=C(N)c1ccc(CNC(=O)[C@@H]2CCCN2C(=O)[C@H]2Cc3ccccc3CN2)cc1 [Example 11, H-(D)3-Tic-Pro-NH-p-amb.2CH3COOH]
3	10	N=C(N)c1ccc(CNC(=O)[C@@H]2CCN2C(=O)[C@H](NCC(=O)O)C2CCCCC2)s1 [Example 31, HOOC—CH2-(D)Chg-Aze-NH-CH2-5-(2-am)-thioph]
70	20	N=C(N)c1coc(CNC(=O)[C@@H]2CCCN2C(=O)[C@@H](CC2CCCCC2)NCC(=O)O)c1 [Example 34, HOOC—CH2-(D)Cha-Pro-NH—CH2-5-(3-am)-fur.CH3COOH]
40	3	N=C(N)c1coc(CNC(=O)[C@@H]2C=CCN2C(=O)[C@@H](CC2CCCCC2)NCC(=O)O)c1 [Example 44, HOOC—CH2-(D)Cha-Pyr-NH—CH2-5-(3-am)-fur.CH3COOH]
30	3	CS(=O)(=O)N[C@H](CC1CCCCC1)C(=O)N1CC=C[C@H]1C(=O)NCc1ccc(C(=N)N)cc1 [Example 4, CH3—SO2-(D)Cha-Pyr-NH-p-amb.CH3COOH]
> 100	20	N=C(N)c1ccc(CNC(=O)[C@@H]2CCCN2C(=O)[C@H](NS(=O)(=O)CC(=O)O)C2CCCCC2)cn1 [Example 16, HOOC—CH2—SO2-(D)Chg-Pro-NH-3-(6-am)-pico.CH3COOH]
> 100	5	HOOC—CH2—CH2-(D)Cha-Pro-NH-CH2-5-(2-am)-thioph.CH3COOH [Example 30]
2	10	N=C(N)c1csc(CNC(=O)[C@@H]2CCN2C(=O)[C@H](NCC(=O)O)C2CCCCC2)c1 [Example 39, HOOC—CH2-(D)Chg-Aze-NH—CH2-5-(3-am)-thioph]
3	2	N=C(N)c1ccc(CNC(=O)[C@@H]2C=CCN2C(=O)[C@@H](CC2CCCCC2)NS(=O)(=O)Cc2ccccc2)cn1 [Example 15, C6H5—CH2—SO2-(D)Cha-Pyr-NH-3-(6-am)-pico.CH3COOH]
40	40	N=C(N)c1ccc(CNC(=O)[C@@H]2CSCN2C(=O)[C@@H](CC2CCCCC2)NCC(=O)O)s1 [Example 33, HOOC—CH2-(D)Cha-Thz-4-CO—NH—CH2-5-(2-am)-thioph.2HCl]
6	10	N=C(N)c1csc(CNC(=O)[C@@H]2CCCN2C(=O)[C@H](NCC(=O)O)C2CCCCC2)c1 [Example 43, HOOC—CH2-(D)Chg-Pro-NH—CH2-5-(3-am).thioph.2HCl]
30	10	CS(=O)(=O)N[C@H](CC1CCCCC1)C(=O)N1CC=C[C@H]1C(=O)NCc1ccc(C(=N)N)nc1 [Example 13, CH3—SO2-(D)Cha-Pyr-NH-3-(6-am)-pico.CH3COOH]
> 100	20	CC1CCN[C@@H](C(=O)N2CCC[C@H]2C(=O)NCc2ccc(C(=N)N)cc2)C1 (stereo partly drawn) [Example 10, (D)(4-Me)Pic-Pro-NH-p-amb.2CH3COOH]
> 100	30	N=C(N)c1ccc(CNC(=O)[C@@H]2CCCN2C(=O)[C@@H](Cc2ccccc2)NS(=O)(=O)c2cccnc2)cc1 [Example 3, 3-Py-SO2-(D)Phe-Pro-NH-p-amb.CH3COOH]
> 100	4	2-C6H10—CH2-Gly-Pro-NH-p-amb.2HCl [Example 7]
–	10	CC(C)[C@@H](N)C(=O)N1CCC[C@H]1C(=O)NCc1ccc(C(=N)N)cc1 [Example 5, H-(D)Val-Pro-NH-p-amb.2HCl]

IC50 [1] [µM]	IC50 [2] [µM]	Compound
40	3	Cc1c(C(=N)N)csc1CNC(=O)[C@@H]1C=CCN1C(=O)[C@H](NCC(=O)O)C1CCCCC1 [Example 51, HOOC—CH2-(D)Chg-Pyr-NH—CH2-5-(4-Me-3-am)-thioph.CH3COOH]
> 100	20	CS(=O)(=O)N[C@@H](C(=O)N1CCC[C@H]1C(=O)NCc1ccc(C(=N)N)nc1)C1CCCCC1 [Example 14, CH3—SO2-(D)Chg-Pro-NH-3-(6-am)-pico.CH3COOH]
0.6	2	CC(C)(C)OC(=O)Nc1ccc(CS(=O)(=O)N[C@H](CC2CCCCC2)C(=O)N2CC=C[C@H]2C(=O)NCc2ccc(C(=N)N)nc2)cc1 [Example 20, Boc-NH-p-C6H4CH2—SO2-(D)Cha-Pyr-NH-3-(6-am)-pico-CH3COOH]
20	3	N=C(N)c1csc(CNC(=O)C2C=CCN2C(=O)C(CC2CCCCC2)NCC(=O)O)c1Cl (stereo not drawn) [Example 50, HOOC—CH2(D)Cha-Pyr-NH—CH2-5-(4-Cl-3-am)-thioph.CH3COOH]
50	30	N=C(N)c1csc(CNC(=O)[C@@H]2CC3CCCCC3N2C(=O)[C@H](NCC(=O)O)C2CCCCC2)c1 (stereo partly shown) [Example 48, HOOC—CH2-(D)Chg-(L)Ohi-2-CO—NH—CH2-5-(3-am)-thioph.HCl]
> 100	20	N=C(N)c1ccc(CNC(=O)[C@@H]2CCCN2C(=O)CNC(=O)CCCc2ccccc2)cc1 [Example 9, C6H5—(CH2)3—CO-Gly-Pro-NH-p-amb.HI]
6	20	N=C(N)c1csc(CNC(=O)C2SCCN2C(=O)[C@H](NCC(=O)O)C2CCCCC2)c1 (stereo partly drawn) [Example 45, HOOC—CH2-(D)Chg-Thz-2-CO—NH—CH2-5-(3-am)-thioph]
0.5	0.8	N=C(N)c1ccc(CNC(=O)[C@@H]2C=CCN2C(=O)[C@H](NS(=O)(=O)Cc2ccc(N)cc2)C2CCCCC2)cn1 [Example 23, H2N-p-C6H4—CH2—SO2-(D)Chg-Pyr-NH-CH2-3-(6-am)-pico.HCl]
10	4	HOOC—CH2-(D,L)Cpg-Pyr-NH—CH2-5-(3-Me-3-am)-thioph.CH3COOH [Example 52]
> 100	30	N=C(N)c1ccc(CNC(=O)[C@@H]2CCCN2C(=O)[C@@H](Cc2ccccc2)NCCCS(=O)(=O)O)cc1 [Example 12, HO3S—(CH2)3-(D)Phe-Pro-NH-p-amb.HCl]
10	7	N=C(N)c1ccc(CNC(=O)[C@@H]2C=CCN2C(=O)[C@H](NCC(=O)O)C2CCCCC2)cn1 [Example 18, HOOC—CH2-(D)Chg-Pyr-NH-3-(6-am)-pico.CH3COOH]
> 100	0.8	N=C(N)c1ccc(CNC(=O)[C@@H]2CCCN2C(=O)[C@H](NCCCCCC(=O)O)C2CCCCC2)cn1 [Example 24, HOOC—(CH2)5-(D)Chg-Pro-NH-3-(6-am)-pico.CH3COOH]
–	6	CC(C)(C)OC(=O)N[C@H](CC(=O)OCc1ccccc1)C(=O)N1CCC[C@H]1C(=O)NCc1ccc(C(=N)N)cc1 [Example 6, Boc-(D)Asp(OBn)-Pro-NH-p-amb.CH3COOH]
> 100	6	N=C(N)c1ccc(CNC(=O)[C@@H]2CCCN2C(=O)CNC(=O)CCc2ccccc2)cc1 [Example 8, C6H5—CH2—CH2—CO-Gly-Pro-NH-p-amb.HI]
–	8	N=C(N)Nc1ncc(CNC(=O)[C@@H]2C=CCN2C(=O)[C@@H](CC2CCCCC2)NCC(=O)O)s1 [Example 54, N-(Hydroxycarbonyl-methylene)-(D)cyclohexylalanyl-3,4-dehydroprolyl-[5-(2-guanidino)thiazolylmethyl]amide Bishydrochloride]

Compound	IC50 [1] [µM]	IC50 [2] [µM]
N=C(N)c1ccc(CNC(=O)[C@@H]2CCCN2C(=O)[C@@H](Cc2ccccc2)NS(=O)(=O)CC(F)(F)F)cc1 [Example 1, CF3—CH2—SO2-(D)Phe-Pro-NH-p-amb.CH3COOH]	> 100	6
